Test results from US20080171783A1, “COMPOSITIONS AND METHODS FOR TREATING HYPERPROLIFERATIVE DISEASE” (Migenix Inc., priority 2006, published 2008).

What was measured:
[1] = molecular target: T1, Calf polymerase alpha (Bos taurus, UniProt A0AAA9TD94); test: Calf polymerase alpha inhibition (Replizyme kit); assay type: biochemical; details: for IC50: dose response; for inhibition at 10 µM: single point screening
T1 construct: purchased Replizyme Ltd (Heslington, York, UK)
T1 sequence (A0AAA9TD94 1-1441): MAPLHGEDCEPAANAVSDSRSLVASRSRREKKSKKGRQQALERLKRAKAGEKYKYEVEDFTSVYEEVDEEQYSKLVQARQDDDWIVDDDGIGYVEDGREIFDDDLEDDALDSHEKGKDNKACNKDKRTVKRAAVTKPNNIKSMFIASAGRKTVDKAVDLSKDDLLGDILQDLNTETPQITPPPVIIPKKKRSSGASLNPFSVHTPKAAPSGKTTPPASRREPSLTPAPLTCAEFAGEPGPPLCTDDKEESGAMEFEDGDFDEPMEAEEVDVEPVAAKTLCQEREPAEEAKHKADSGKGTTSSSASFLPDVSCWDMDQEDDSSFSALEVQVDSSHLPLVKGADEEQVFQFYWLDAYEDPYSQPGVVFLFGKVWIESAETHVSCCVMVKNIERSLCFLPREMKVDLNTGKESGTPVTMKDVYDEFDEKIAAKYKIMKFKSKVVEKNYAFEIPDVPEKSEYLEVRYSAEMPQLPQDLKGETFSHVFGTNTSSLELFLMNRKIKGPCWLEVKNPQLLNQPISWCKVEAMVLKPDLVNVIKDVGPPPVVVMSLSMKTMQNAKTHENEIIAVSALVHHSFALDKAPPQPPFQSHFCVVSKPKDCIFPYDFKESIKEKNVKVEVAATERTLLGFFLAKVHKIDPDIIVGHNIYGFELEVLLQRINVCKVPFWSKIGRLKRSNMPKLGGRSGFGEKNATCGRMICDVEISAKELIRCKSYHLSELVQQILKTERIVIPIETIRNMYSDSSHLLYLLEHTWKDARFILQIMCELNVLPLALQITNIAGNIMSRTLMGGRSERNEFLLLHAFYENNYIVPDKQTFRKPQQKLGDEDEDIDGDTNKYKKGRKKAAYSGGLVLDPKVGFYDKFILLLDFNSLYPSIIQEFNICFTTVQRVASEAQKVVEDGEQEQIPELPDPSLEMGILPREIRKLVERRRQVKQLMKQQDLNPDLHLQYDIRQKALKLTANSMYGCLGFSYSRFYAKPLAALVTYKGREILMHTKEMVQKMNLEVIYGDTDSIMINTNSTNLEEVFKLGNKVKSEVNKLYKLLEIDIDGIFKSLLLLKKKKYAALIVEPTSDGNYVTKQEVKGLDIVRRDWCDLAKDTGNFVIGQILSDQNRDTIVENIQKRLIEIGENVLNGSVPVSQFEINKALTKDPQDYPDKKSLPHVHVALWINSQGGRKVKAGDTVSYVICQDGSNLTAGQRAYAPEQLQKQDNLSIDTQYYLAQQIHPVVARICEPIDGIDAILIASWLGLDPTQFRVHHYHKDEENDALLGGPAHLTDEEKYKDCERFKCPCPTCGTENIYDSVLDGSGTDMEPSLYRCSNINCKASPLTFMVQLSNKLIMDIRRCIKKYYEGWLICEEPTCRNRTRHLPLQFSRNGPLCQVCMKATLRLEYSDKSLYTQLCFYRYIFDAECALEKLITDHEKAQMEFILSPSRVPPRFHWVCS
Method: Calf polymerase alpha and human polymerase alpha investigations were performed with a kit available from Replizyme Ltd (Heslington, York, UK).

[2] = Cytotoxicity Huh-7 cells (MTS/PMS); assay type: cell-based; details: human, 3-day incubation
Method: Cytotoxicity of compounds for use in treating hyperproliferative diseases or disorders was tested in Huh-7 cells using tetrazolium salt MTS combined with the electron acceptor PMS in a 96-well format. Six doses of each compound was tested, starting at about 1.2 μM to 0.4 μM serially diluted in a final 1% DMSO solution in DMEM/F12 media. Terfenadine was used as a positive control. Cells were seeded at 2.5×10^5 cells/mL in each well of the 96-well plates in a final volume of 0.1 mL, and then incubated at 37° C. in the presence of 5% CO2 overnight. Compounds (in media) were added the following day and the treated cells were incubated another 3-days at 37° C. in the presence of 5% CO2. After the 3-day incubation, 20 μL of MTS/PMS (3-(4,5-dimethylthiazol-2-yl)-5-(3-carboxymethoxy-phenyl)-2-(4-sulfophenyl)-2H-tetrazolium) was added to each well. After about a one to four hour incubation of MTS/PMS at 37° C. and 5% CO2—that is, until an OD490 absorbance of ≧0.6 for the wells containing cells with media only, the level of cytotoxicity at each concentration was calculated. […] Dose response results from the cytotoxicity assay (CC50) are provided in Table 4 in comparison with IC50 data (from Table 2)

Structure (SMILES)	IC50 [1] [µM]	CC50 at 3 days [2] [µM]	inhibition at 10 µM [1] [%]
Cc1ccc(NC(=O)[C@H](CCCCN)NC(=O)Nc2ccc(OCc3ccccc3)cc2)cc1 [Compound 2, (S)-6-AMINO-2-[3-(4-BENZYLOXY-PHENYL)-UREIDO]-HEXANOIC ACID P-TOLYLAMIDE]	13	22.2	–
CC(C)(C)c1ccc(NC(=O)[C@H](CCCCN)NC(=O)OCC2c3ccccc3-c3ccccc32)cc1 [Compound 105, (S)-[5-AMINO-1-(4-TERT-BUTYL-PHENYLCARBAMOYL)-PENTYL]-CARBAMIC ACID 9H-FLUOREN-9-YLMETHYL ESTER]	–	–	100
Cc1ccc(NC(=O)[C@@H](CCCCN)NC(=O)Nc2ccc3c(c2)Cc2ccccc2-3)cc1 [Compound 173, (R)-6-AMINO-2-[3-(9H-FLUOREN-2-YL)-UREIDO]-HEXANOIC ACID P-TOLYLAMIDE]	–	–	99
COC(=O)c1ccc(COc2ccc(NC(=O)N[C@@H](CCCCN)C(=O)Nc3ccc(C)cc3)cc2)cc1 [Compound 199, (S)-4-{4-[3-(5-AMINO-1-P-TOLYLCARBAMOYL-PENTYL)-UREIDO]-PHENOXYMETHYL}-BENZOIC ACID METHYL ESTER]	7.9	53	39.7
Cc1cc2cc(NC(=O)[C@H](CCCNC(=O)CN)NC(=O)Nc3ccc4c(c3)Cc3ccccc3-4)ccc2[nH]1 [Compound 297, (S)-5-(2-AMINO-ACETYLAMINO)-2-[3-(9H-FLUOREN-2-YL)-UREIDO]-PENTANOIC ACID (2-METHYL-1H-INDOL-5-YL)-AMIDE]	26	9.9	16.5
